Assays:
[1] = target: T1, BCR-KIT BaF3 cells (Homo sapiens, UniProt P10721); assay: BaF3 BCR-KIT cell proliferation assay (ATPlite); assay type: cell-based; details: read-out: Inhibition of Cell Proliferation IC50, BCR/BaF3 Kit
T1 construct: fused on or other part: P11274 (Breakpoint cluster region protein)
Description: Compounds are assessed in a variety of cell based assays. For example BaF3 cells engineered with any of BCR-FMS, BCR-KIT, BCR-FLT3, BCR-NTRK1, BCR-NTRK2, and BCR-NTRK3, are used in cell proliferation assays to assess inhibitory activity of Fms, Kit, Flt-3, TrkA, TrkB, and TrkC, respectively. An MV-4-11 (leukemia) cell proliferation assay is used to assess inhibitory activity in Flt-3, and SKNSH (human neuroblastoma) cell proliferation assay is used to assess efficacy of Fms/Trk inhibitors. Additional cells may be assayed similarly to assess the efficacy of Fms/Trk inhibitors, such as MiaPaCa (human pancreatic cancer) and Capan-1 (human pancreatic carcinoma) cells. Reagent and assay conditions are as follows: • BaF3 cells: • Maintained in RPMI containing 10% FBS, 1% PenStrep, 1% NEAA, and 1% L-Glutamine, supplemented with 1 mg/mL G418 and 5% WEHI-CM (or recombinant murine IL-3). • Confluent cells are split 1:50 to 1:100 every 3-4 days. • MV-4-11 cells: • Maintained in Iscove's Modified Dulbecco's Medium containing 10% FBS. • Confluent cells are split 1:4 every 3-4 days. • SKNSH cells: RPMI containing 10% FBS. On day 1, cells are counted, then centrifuged in a conical tube for 5 minutes at 1000 rpm. The supernatant is removed and cells are re-suspended as follows: • BaF3: resuspend in growth media +1 mg/mL G418 (without WEHFIL-3) to 2×10^5 cells/mL. • MV-4-11: resuspend in growth media to 5×10^5 cells/mL. • SKNSH: resuspend in growth media to 2×10^4 cells/mL. The cells are plated (50 μL, 150 μL for SKNSH cells) in each well of a 96-well dish (Corning 3610) and incubated at 37° C. in 5% CO2 overnight, cells plated to a final concentration of cells as follows: • BaF3: 10,000 cells per well. • MV-4-11: 25,000 cells per well. • SKNSH: 3,000 cells per well. On day 2, compound at a maximum concentration of 5 mM is serially diluted 1:3 for a total of 8 point titration with DMSO as a control. A 1 μL aliquot of each dilution point is added to 249 μL growth media and 50 μL is added to a well containing cells, providing 10 μM compound for the maximum concentration point. The cells are incubated for 3 days at 37° C. in 5% CO2. For SKNSH cells, a 0.75 μL aliquot of appropriate dilution in DMSO is added to 150 μL of cells. On day 5, ATPlite 1 step Luminescence Assay System (Perkin Elmer #6016739) is brought to room temperature along with the cell cultures. ATPlite is added to each well as follows: • BaF3: 25 μL per well. • MV-4-11: 40 μL per well. • SKNSH: 20 μL per well. The cells are incubated at room temperature for 10 minutes, then luminescence is read on Safire reader. The measured luminescence correlates directly with cell number, such that the reading as a function of compound concentration is used to determine the IC50 value.
It is understood that the results of these assays may vary as assay conditions are varied. Inhibition levels determined under the conditions described herein represent a relative activity for the compounds tested under the specific conditions employed. The cell based assays are likely to show variability due to the complexity of the system and the sensitivity thereof to any changes in the assay conditions. […] Results for compounds that are tested and show substantially no inhibition below the highest tested concentration are represented as “-” in the tables below. In some instances, the compounds were not tested in all of the assays, or assay results were not valid, as indicated by NA in the tables below.

[2] = target: TrkA kinase (Homo sapiens, UniProt P04629); assay: TrkA kinase biochemical activity assay (AlphaScreen); details: 100 μM ATP; read-out: Biochemical Inhibition IC50 TrkA
Description: In one assay the biochemical activity IC50 values are determined with respect to inhibition of TrkA kinase activity, where inhibition of phosphorylation of a peptide substrate is measured as a function of compound concentration. Compounds to be tested, dissolved in DMSO (1 μL), are added to a white 384-well plate (Costar #3705). Working stocks of TrkA kinase (UBI), biotin-(E4Y)10 substrate (Upstate Biotech, Cat#12-440), and ATP (Sigma, Cat#A-3377) are prepared in 25 mM Hepes pH 7.5, 10 mM MnCl2, 1 mM DTT, 0.01% BSA, and 0.01% Tween-20. All components are added to the 384-well plate for a final concentration of 1 ng/well TrkA, 30 nM biotin-(E4Y)10 and 100 μM ATP in a volume of 20 μL. Each sample is at 5% DMSO. The plate is shaken for 1 minute at 1200 rpm, spun for 1 minute at 1000 rpm, then incubated for 40 minutes at room temperature. Just before use, working stocks of donor and acceptor beads from the AlphaScreen PY20 Detection Kit (PerkinElmer, Cat#676601M) are prepared in 25 mM Hepes pH 7.5, 100 mM EDTA. 0.01% BSA. Donor Beads solution (Streptavidin beads) is added (5 μL) to each well to final bead concentration of 10 μg/mL. The plate is incubated at room temperature for 20 minutes. Acceptor Beads solution (PY20 coated beads) are then added to each well (5 μL) to a final concentration of bead at 10 μg/mL. The plates are incubated at room temperature for 60 minutes. Fluorescence signal is recorded on the Envision reader. Phosphorylated substrate results in binding of the PY20 antibody and association of the donor and acceptor beads such that signal correlates with kinase activity. The signal vs. compound concentration is used to determine the IC50. Similar assays are used for TrkB and Trk C kinase.

T1 sequence (P10721 589-937): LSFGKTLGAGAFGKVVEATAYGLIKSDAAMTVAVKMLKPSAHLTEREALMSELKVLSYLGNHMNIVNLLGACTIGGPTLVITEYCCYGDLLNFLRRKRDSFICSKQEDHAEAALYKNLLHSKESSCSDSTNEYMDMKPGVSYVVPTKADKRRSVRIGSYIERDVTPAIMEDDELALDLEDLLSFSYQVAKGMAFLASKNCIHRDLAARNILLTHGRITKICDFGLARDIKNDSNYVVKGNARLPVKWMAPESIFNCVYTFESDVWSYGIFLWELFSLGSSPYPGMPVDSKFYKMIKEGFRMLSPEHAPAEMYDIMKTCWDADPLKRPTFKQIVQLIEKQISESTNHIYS
Sequence of TrkA kinase (P04629 33-796): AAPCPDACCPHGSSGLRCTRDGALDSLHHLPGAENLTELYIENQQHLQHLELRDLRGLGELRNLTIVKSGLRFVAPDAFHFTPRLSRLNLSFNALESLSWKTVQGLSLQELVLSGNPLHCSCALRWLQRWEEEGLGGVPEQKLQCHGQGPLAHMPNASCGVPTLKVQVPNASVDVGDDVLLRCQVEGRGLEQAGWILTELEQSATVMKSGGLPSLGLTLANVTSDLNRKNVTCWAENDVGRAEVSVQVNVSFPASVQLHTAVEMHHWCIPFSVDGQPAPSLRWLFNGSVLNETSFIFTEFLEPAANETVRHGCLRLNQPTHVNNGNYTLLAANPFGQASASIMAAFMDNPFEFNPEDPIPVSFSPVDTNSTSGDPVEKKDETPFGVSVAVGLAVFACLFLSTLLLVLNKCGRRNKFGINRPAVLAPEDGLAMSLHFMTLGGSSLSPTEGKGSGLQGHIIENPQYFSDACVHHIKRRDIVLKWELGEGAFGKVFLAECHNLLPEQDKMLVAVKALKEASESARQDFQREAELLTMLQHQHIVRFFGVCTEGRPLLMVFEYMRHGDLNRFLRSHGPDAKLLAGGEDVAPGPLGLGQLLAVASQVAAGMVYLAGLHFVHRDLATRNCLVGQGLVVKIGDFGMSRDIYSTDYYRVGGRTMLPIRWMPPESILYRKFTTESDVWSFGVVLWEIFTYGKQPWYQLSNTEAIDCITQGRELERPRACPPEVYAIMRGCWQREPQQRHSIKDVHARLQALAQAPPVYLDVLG

Compound	IC50 [1] [nM]	IC50 [2] [nM]
CC1CCC(Nc2ncc(Cc3c[nH]c4ncc(Cl)cc34)cn2)CC1 (centres unmarked) [Compound P-3009, [5-(5-Chloro-1H-pyrrolo[2,3-b]pyridin-3-ylmethyl)-pyrimidin-2-yl]-(4-methyl-cyclohexyl)-amine]	> 1000	–
Cc1cnc2[nH]cc(Cc3cnc(Nc4ccc(F)cc4)nc3)c2c1 [Compound P-3010, (4-Fluoro-phenyl)-[5-(5-methyl-1H-pyrrolo[2,3-b]pyridin-3-ylmethyl)-pyrimidin-2-yl]-amine]	< 1000	< 1000
Clc1ccc(Nc2ncc(Cc3c[nH]c4ncc(Cl)cc34)cn2)cc1 [Compound P-3011, (4-Chloro-phenyl)-[5-(5-chloro-1H-pyrrolo[2,3-b]pyridin-3-ylmethyl)-pyrimidin-2-yl]-amine]	< 100	> 1000
Fc1ccc(Nc2ncc(Cc3c[nH]c4ncc(Cl)cc34)cn2)cc1 [Compound P-3012, [5-(5-Chloro-1H-pyrrolo[2,3-b]pyridin-3-ylmethyl)-pyrimidin-2-yl]-(4-fluoro-phenyl)-amine]	< 1000	> 1000
Fc1nc(NC2CCC(F)(F)CC2)ccc1Cc1c[nH]c2ncc(Cl)cc12 [Compound P-3013, [5-(5-Chloro-1H-pyrrolo[2,3-b]pyridin-3-ylmethyl)-6-fluoro-pyridin-2-yl]-(4,4-difluoro-cyclohexyl)-amine]	> 1000	–
Fc1ccccc1Nc1ncc(Cc2c[nH]c3ncc(Cl)cc23)cn1 [Compound P-3014, [5-(5-Chloro-1H-pyrrolo[2,3-b]pyridin-3-ylmethyl)-pyrimidin-2-yl]-(2-fluoro-phenyl)-amine]	> 1000	> 1000
Clc1cnc2[nH]cc(Cc3cnc(Nc4ccccc4Cl)nc3)c2c1 [Compound P-3015, (2-Chloro-phenyl)-[5-(5-chloro-1H-pyrrolo[2,3-b]pyridin-3-ylmethyl)-pyrimidin-2-yl]-amine]	> 1000	> 1000
O=C(c1ccc(NC2CCC(F)(F)CC2)nc1F)c1c[nH]c2ncnc(NCC(F)(F)F)c12 [Compound P-4061, [6-[(4,4-difluorocyclohexyl)amino]-2-fluoro-3-pyridyl]-[4-(2,2,2-trifluoroethylamino)-7H-pyrrolo[2,3-d]pyrimidin-5-yl]methanone]	> 1000	< 100
CCc1ccc(Nc2ccc(C(=O)c3c[nH]c4ncnc(NCC(C)(C)O)c34)c(F)n2)cn1 [Compound P-4064, [6-[(6-ethyl-3-pyridyl)amino]-2-fluoro-3-pyridyl]-[4-[(2-hydroxy-2-methyl-propyl)amino]-7H-pyrrolo[2,3-d]pyrimidin-5-yl]methanone]	< 100	< 10
COc1ccc(Nc2ccc(C(=O)c3c[nH]c4ncnc(NC(C)C)c34)c(F)n2)cn1 [Compound P-4066, [2-fluoro-6-[(6-methoxy-3-pyridyl)amino]-3-pyridyl]-[4-(isopropylamino)-7H-pyrrolo[2,3-d]pyrimidin-5-yl]methanone]	< 10	< 10
COc1ccc(Nc2ccc(C(=O)c3c[nH]c4ncnc(NCC5CC5)c34)c(F)n2)cn1 [Compound P-4067, [4-(cyclopropylmethylamino)-7H-pyrrolo[2,3-d]pyrimidin-5-yl]-[2-fluoro-6-[(6-methoxy-3-pyridyl)amino]-3-pyridyl]methanone]	< 100	< 10
CCCNc1ncnc2[nH]cc(C(=O)c3ccc(Nc4ccc(OC)nc4)nc3F)c12 [Compound P-4068, [2-fluoro-6-[(6-methoxy-3-pyridyl)amino]-3-pyridyl]-[4-(propylamino)-7H-pyrrolo[2,3-d]pyrimidin-5-yl]methanone]	< 100	< 10
COc1ccc(Nc2ccc(C(=O)c3c[nH]c4ncnc(N5CCCCC5)c34)c(F)n2)cn1 [Compound P-4069, [2-fluoro-6-[(6-methoxy-3-pyridyl)amino]-3-pyridyl]-[4-(1-piperidyl)-7H-pyrrolo[2,3-d]pyrimidin-5-yl]methanone]	> 1000	< 100
COc1ccc(Nc2ccc(C(=O)c3c[nH]c4ncnc(N5CCOCC5)c34)c(F)n2)cn1 [Compound P-4070, [2-fluoro-6-[(6-methoxy-3-pyridyl)amino]-3-pyridyl]-(4-morpholino-7H-pyrrolo[2,3-d]pyrimidin-5-yl)methanone]	> 1000	> 1000
COc1ccc(Nc2ccc(C(=O)c3c[nH]c4ncnc(NCc5ccc(C(F)(F)F)nc5)c34)c(F)n2)cn1 [Compound P-4071, [2-fluoro-6-[(6-methoxy-3-pyridyl)amino]-3-pyridyl]-[4-[[6-(trifluoromethyl)-3-pyridyl]methylamino]-7H-pyrrolo[2,3-d]pyrimidin-5-yl]methanone]	< 100	< 10
COc1ccc(Nc2ccc(C(=O)c3c[nH]c4ncnc(N[C@@H](C)c5ccc(F)cc5)c34)c(F)n2)cn1 [Compound P-4072, [2-fluoro-6-[(6-methoxy-3-pyridyl)amino]-3-pyridyl]-[4-[[(1S)-1-(4-fluorophenyl)ethyl]amino]-7H-pyrrolo[2,3-d]pyrimidin-5-yl]methanone]	< 1000	< 100
COc1ccc(Nc2ccc(C(=O)c3c[nH]c4ncnc(NCC5CCCO5)c34)c(F)n2)cn1 (centres unmarked) [Compound P-4073, [2-fluoro-6-[(6-methoxy-3-pyridyl)amino]-3-pyridyl]-[4-(tetrahydrofuran-2-ylmethylamino)-7H-pyrrolo[2,3-d]pyrimidin-5-yl]methanone]	< 1000	< 10
CCN1CCC(Nc2ncnc3[nH]cc(C(=O)c4ccc(Nc5ccc(OC)nc5)nc4F)c23)CC1 [Compound P-4074, [4-[(1-ethyl-4-piperidyl)amino]-7H-pyrrolo[2,3-d]pyrimidin-5-yl]-[2-fluoro-6-[(6-methoxy-3-pyridyl)amino]-3-pyridyl]methanone]	< 1000	< 10
CCc1ccc(Nc2ccc(C(=O)c3c[nH]c4ncnc(Nc5ccc(C)nc5)c34)c(F)n2)cn1 [Compound P-4086, [6-[(6-ethyl-3-pyridyl)amino]-2-fluoro-3-pyridyl]-[4-[(6-methyl-3-pyridyl)amino]-7H-pyrrolo[2,3-d]pyrimidin-5-yl]methanone]	–	< 100
